Results as given in patent publication US12492173B2, “Herbicidal substituted N-tetrazolyl aryl carboxamides” (Bayer Aktiengesellschaft, priority 2019, dated 2025).

Key:
Format in all cases: in vivo
Hordeum murinum = assay: Pre-emergence herbicidal action, HORMU; conditions: dosage 320 g/ha, scored visually after 3 weeks vs untreated controls (100% = plants have died)
Source text: (§1) 1. Pre-Emergence Herbicidal Action Against Harmful Plants Seeds of monocotyledonous and dicotyledonous weed plants and crop plants are laid out in sandy loam soil in wood-fiber pots and covered with soil. The compounds of the invention, formulated in the form of wettable powders (WP) or as emulsion concentrates (EC), are then applied to the surface of the covering soil in the form of an aqueous suspension or emulsion at a water application rate equating to 600 to 800 l/ha, with addition of 0.2% wetting agent. After the treatment, the pots are placed in a greenhouse and kept under good growth conditions for the trial plants. The damage to the test plants is scored visually after a test period of 3 weeks by comparison with untreated controls (herbicidal activity in percent (%): 100% activity=the plants have died, 0% activity=like control plants). […] The tables below illustrate, in an exemplary manner, the […] herbicidal action of the compounds according to the invention, the herbicidal activity being stated in percent. [table] In the experiments that follow, herbicidal action of numerous inventive compounds and the known compounds that are structurally closest from D1 (WO 2012/028579 A1) and D2 (WO 2018/202535 A1) were compared under the above-specified conditions by the pre-emergence and post-emergence method. The example numbers given in the tables relate to the compounds disclosed in the respective documents. In addition to the compounds disclosed in D1 and D2, the following compounds V-1 to V-14 that are encompassed by D1 or D2 but are not compounds specified therein were used in the comparative experiments: • V-1: 2-(methylsulfanyl)-3-(methylsulfinyl)-N-(1-methyl-1H-tetrazol-5-yl)-4-(trifluoromethyl)benzamide • V-2: 2-(methylsulfanyl)-3-(methylsulfonyl)-N-(1-methyl-1H-tetrazol-5-yl)-4-(trifluoromethyl)benzamide • V-3: 2,3-bis(ethylsulfanyl)-N-(1-methyl-1H-tetrazol-5-yl)-4-(trifluoromethyl)benzamide • V-4: 2-chloro-3-(ethylsulfanyl)-N-(1-methyl-1H-tetrazol-5-yl)-4-(trifluoromethyl)benzamide • V-5: 2-chloro-4-iodo-3-(methylsulfanyl)-N-(1-methyl-1H-tetrazol-5-yl)benzamide • V-6: 2-chloro-4-iodo-3-(methylsulfinyl)-N-(1-methyl-1H-tetrazol-5-yl)benzamide • V-7: 2-chloro-4-iodo-3-(methylsulfonyl)-N-(1-methyl-1H-tetrazol-5-yl)benzamide • V-8: 2-bromo-3-(methylsulfanyl)-N-(1-methyl-1H-tetrazol-5-yl)-4-(trifluoromethyl)benzamide • V-9: 2-bromo-3-(methylsulfinyl)-N-(1-methyl-1H-tetrazol-5-yl)-4-(trifluoromethyl)benzamide • V-10: 2-bromo-3-(methylsulfonyl)-N-(1-methyl-1H-tetrazol-5-yl)-4-(trifluoromethyl)benzamide • V-11: 2-bromo-3-(ethylsulfanyl)-N-(1-methyl-1H-tetrazol-5-yl)-4-(trifluoromethyl)benzamide • V-12: 2-bromo-3-(ethylsulfinyl)-N-(1-methyl-1H-tetrazol-5-yl)-4-(trifluoromethyl)benzamide • V-13: 2-bromo-3-(ethylsulfonyl)-N-(1-methyl-1-1H-tetrazol-5-yl)-4-(trifluoromethyl)benzamide • V-14: 2-cyclopropyl-3-(ethylsulfanyl)-N-(1-methyl-1H-tetrazol-5-yl)-4-(trifluoromethyl)benzamide Herbicidal Pre-Emergence Action: […]

Polygonum convolvulus [1] = assay: Post-emergence herbicidal action, POLCO; conditions: comparative experiment, post-emergence, 5 g of a.i./ha
Procedure: (§2) [table] 2. Post-Emergence Herbicidal Action Against Harmful Plants Seeds of monocotyledonous and dicotyledonous weed and crop plants are laid out in sandy loam soil in wood-fiber pots, covered with soil and cultivated in a greenhouse under good growth conditions. 2 to 3 weeks after sowing, the test plants are treated at the one-leaf stage. The compounds of the invention, formulated in the form of wettable powders (WP) or as emulsion concentrates (EC), are then sprayed onto the green parts of the plants in the form of an aqueous suspension or emulsion at a water application rate equating to 600 to 800 l/ha, with addition of 0.2% wetting agent. After the test plants have been left to stand in the greenhouse under optimal growth conditions for about 3 weeks, the action of the preparations is assessed visually in comparison to untreated controls (herbicidal action in percent (%): 100% activity=the plants have died, 0% activity=like control plants). […] The tables below illustrate, in an exemplary manner, the post-emergence herbicidal action of the compounds according to the invention, the herbicidal activity being stated in percent. In the experiments that follow, herbicidal action of numerous inventive compounds and the known compounds that are structurally closest from D1 (WO 2012/028579 A1) and D2 (WO 2018/202535 A1) were compared under the above-specified conditions by the pre-emergence and post-emergence method. The example numbers given in the tables relate to the compounds disclosed in the respective documents. In addition to the compounds disclosed in D1 and D2, the following compounds V-1 to V-14 that are encompassed by D1 or D2 but are not compounds specified therein were used in the comparative experiments: • V-1: 2-(methylsulfanyl)-3-(methylsulfinyl)-N-(1-methyl-1H-tetrazol-5-yl)-4-(trifluoromethyl)benzamide • V-2: 2-(methylsulfanyl)-3-(methylsulfonyl)-N-(1-methyl-1H-tetrazol-5-yl)-4-(trifluoromethyl)benzamide • V-3: 2,3-bis(ethylsulfanyl)-N-(1-methyl-1H-tetrazol-5-yl)-4-(trifluoromethyl)benzamide • V-4: 2-chloro-3-(ethylsulfanyl)-N-(1-methyl-1H-tetrazol-5-yl)-4-(trifluoromethyl)benzamide • V-5: 2-chloro-4-iodo-3-(methylsulfanyl)-N-(1-methyl-1H-tetrazol-5-yl)benzamide • V-6: 2-chloro-4-iodo-3-(methylsulfinyl)-N-(1-methyl-1H-tetrazol-5-yl)benzamide • V-7: 2-chloro-4-iodo-3-(methylsulfonyl)-N-(1-methyl-1H-tetrazol-5-yl)benzamide • V-8: 2-bromo-3-(methylsulfanyl)-N-(1-methyl-1H-tetrazol-5-yl)-4-(trifluoromethyl)benzamide • V-9: 2-bromo-3-(methylsulfinyl)-N-(1-methyl-1H-tetrazol-5-yl)-4-(trifluoromethyl)benzamide • V-10: 2-bromo-3-(methylsulfonyl)-N-(1-methyl-1H-tetrazol-5-yl)-4-(trifluoromethyl)benzamide • V-11: 2-bromo-3-(ethylsulfanyl)-N-(1-methyl-1H-tetrazol-5-yl)-4-(trifluoromethyl)benzamide • V-12: 2-bromo-3-(ethylsulfinyl)-N-(1-methyl-1H-tetrazol-5-yl)-4-(trifluoromethyl)benzamide • V-13: 2-bromo-3-(ethylsulfonyl)-N-(1-methyl-1-1H-tetrazol-5-yl)-4-(trifluoromethyl)benzamide • V-14: 2-cyclopropyl-3-(ethylsulfanyl)-N-(1-methyl-1H-tetrazol-5-yl)-4-(trifluoromethyl)benzamide Herbicidal Pre-Emergence Action: […]

Viola tricolor = assay: Pre-emergence herbicidal action, VIOTR; set-up: key to Herbicidal action against VIOTR: % activity: 100 = plants have died, 0 = like control plants
Procedure, shortened: (§3)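 Percent damage, assessed visually after 3 weeks and referenced to untreated controls, reflects a pre-emergence treatment. Spray liquid equated to 600 to 800 l/ha with 0.2% wetting agent, applied to the covering soil over seeds in sandy loam.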

Cyperus esculentus [2] = assay: Pre-emergence herbicidal action, CYPES; set-up: key: % activity: 100 = plants have died, 0 = like control plants; conditions: comparative experiment, 20 g of a.i./ha
Source text: as §1

Abutilon theophrasti = assay: Pre-emergence herbicidal action, ABUTH; set-up: key to Herbicidal action against ABUTH: % activity: 100 = plants have died, 0 = like control plants; conditions: for Herbicidal action against ABUTH: comparative experiment, 20 g of a.i./ha
Procedure, shortened: as §3

Matricaria inodora = assay: Pre-emergence herbicidal action, MATIN; set-up: key to Herbicidal action against MATIN: % activity: 100 = plants have died, 0 = like control plants; conditions: for Herbicidal action against MATIN: comparative experiment, 20 g of a.i./ha
Procedure, shortened: as §3

Echinochloa crus-galli = assay: Pre-emergence herbicidal action, ECHCG; set-up: key to Herbicidal action against ECHCG: % activity: 100 = plants have died, 0 = like control plants; conditions: for pest or weed control at 20 g/ha: Echinochloa crus-galli, 504 h, read-out: Herbicidal action against ECHCG
Procedure, shortened: as §3

Stellaria media [3] = assay: Pre-emergence herbicidal action, STEME; set-up: key to Herbicidal action against STEME: % activity: 100 = plants have died, 0 = like control plants; conditions: for Herbicidal action against STEME: comparative experiment, 20 g of a.i./ha
Procedure, shortened: as §3

Setaria viridis = assay: Pre-emergence herbicidal action, SETVI; set-up: key to Herbicidal action against SETVI: % activity: 100 = plants have died, 0 = like control plants; conditions: for Herbicidal action against SETVI: comparative experiment, 20 g of a.i./ha
Procedure, shortened: as §3

Amaranthus retroflexus [4] = assay: Pre-emergence herbicidal action, AMARE; set-up: key to Herbicidal action against AMARE: % activity: 100 = plants have died, 0 = like control plants; conditions: for Herbicidal action against AMARE: comparative experiment, 20 g of a.i./ha
Procedure, shortened: as §3

Polygonum convolvulus [5] = assay: Pre-emergence herbicidal action, POLCO; conditions: for Herbicidal action against POLCO: comparative experiment, 20 g of a.i./ha
Procedure, shortened: as §3

Pharbitis purpurea = assay: Pre-emergence herbicidal action, PHBPU
Source text: as §1

Veronica persica = assay: Pre-emergence herbicidal action, VERPE; set-up: key to Herbicidal action against VERPE: % activity: 100 = plants have died, 0 = like control plants; conditions: for Herbicidal action against VERPE: comparative experiment, 20 g of a.i./ha
Procedure, shortened: as §3

Stellaria media [6] = assay: Post-emergence herbicidal action, STEME; set-up: key: % herbicidal action vs untreated; 100 = plants died, 0 = like control; conditions: comparative experiment, post-emergence, 5 g of a.i./ha
Procedure, shortened: (§4)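 Visual % damage versus untreated plants, scored about 3 weeks post-spray (100% = dead, 0% = like control). Greenhouse plants in sandy loam were treated at one-leaf stage with WP/EC formulations in water at 600 to 800 l/ha plus 0.2% wetting agent.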

Amaranthus retroflexus [7] = assay: Post-emergence herbicidal action, AMARE; set-up: key: % herbicidal action vs untreated; 100 = plants died, 0 = like control; conditions: comparative experiment, post-emergence, 5 g of a.i./ha
Procedure, shortened: as §4

Alopecurus myosuroides [8] = assay: Post-emergence herbicidal action, ALOMY; set-up: key: % herbicidal action vs untreated; 100 = plants died, 0 = like control; conditions: comparative experiment, post-emergence, 5 g of a.i./ha
Procedure, shortened: as §4

Cyperus esculentus [9] = assay: Post-emergence herbicidal action, CYPES; set-up: key: % herbicidal action vs untreated; 100 = plants died, 0 = like control; conditions: comparative experiment, post-emergence, 5 g of a.i./ha
Procedure: as §2

Alopecurus myosuroides [10] = assay: Pre-emergence herbicidal action, ALOMY; set-up: key: % activity: 100 = plants have died, 0 = like control plants; conditions: comparative experiment, 20 g of a.i./ha
Source text: as §1

[11] = dosage 320 g/ha, scored visually after 3 weeks vs untreated controls (100% = plants have died)
[12] = comparative experiment, 20 g of a.i./ha

SMILES	Herbicidal action against CYPES (Cyperus esculentus [2])	Herbicidal action against POLCO (Polygonum convolvulus [5])	Herbicidal action against ABUTH (Abutilon theophrasti)	pest or weed control at 20 g/ha (Echinochloa crus-galli; [12]) [%]	Herbicidal action against AMARE (Amaranthus retroflexus [4])	Herbicidal action against MATIN (Matricaria inodora)	Herbicidal action against STEME (Stellaria media [3])	Herbicidal action against SETVI (Setaria viridis)	Herbicidal action against VERPE (Veronica persica)	Herbicidal action against ALOMY (Alopecurus myosuroides [10])	also measured
CSc1c(C(=O)Nc2nnnn2C)ccc(C(F)(F)F)c1CS(C)(=O)=O [Example 1-163]	70	70									herbicidal activity HORMU (Hordeum murinum): 90%; Herbicidal action against POLCO (Polygonum convolvulus [1]): 70; herbicidal activity VIOTR (Viola tricolor; [11]): 100%; herbicidal activity ABUTH (Abutilon theophrasti; [11]): 100%; herbicidal activity MATIN (Matricaria inodora; [11]): 100%; Herbicidal action against ECHCG (Echinochloa crus-galli; [12]): 90; herbicidal activity ECHCG (Echinochloa crus-galli; [11]): 100%; herbicidal activity STEME (Stellaria media [3]; [11]): 100%; herbicidal activity SETVI (Setaria viridis; [11]): 100%; herbicidal activity AMARE (Amaranthus retroflexus [4]; [11]): 100%; herbicidal activity POLCO (Polygonum convolvulus [5]; [11]): 100%; herbicidal activity PHBPU (Pharbitis purpurea; [11]): 80%; herbicidal activity VERPE (Veronica persica; [11]): 100%
CSc1c(C(=O)Nc2nnnn2C)ccc(C(F)(F)F)c1[S+](C)[O-] (stereo not drawn) [Example V-1, 2-(methylsulfanyl)-3-(methylsulfinyl)-N-(1-methyl-1H-tetrazol-5-yl)-4-(trifluoromethyl)benzamide, reference compound]	50	0	0	50	60						Herbicidal action against PHBPU (Pharbitis purpurea; [12]): 0
CSc1c(I)ccc(C(=O)Nc2nnnn2C)c1Cl [Example V-5, 2-chloro-4-iodo-3-(methylsulfanyl)-N-(1-methyl-1H-tetrazol-5-yl)benzamide, reference compound]	0			0	70	20	0	0	0		Herbicidal action against STEME (Stellaria media [6]): 10; Herbicidal action against AMARE (Amaranthus retroflexus [7]): 70; Herbicidal action against ALOMY (Alopecurus myosuroides [8]): 40; Herbicidal action against CYPES (Cyperus esculentus [9]): 10
Cn1nnnc1NC(=O)c1ccc(I)c([S+](C)[O-])c1Cl (stereo not drawn) [Example V-6, 2-chloro-4-iodo-3-(methylsulfinyl)-N-(1-methyl-1H-tetrazol-5-yl)benzamide, reference compound]			40		50	60	0	60		30	
Cn1nnnc1NC(=O)c1ccc(C(F)(F)F)c([S+](C)[O-])c1Br (stereo not drawn) [Example V-9, 2-bromo-3-(methylsulfinyl)-N-(1-methyl-1H-tetrazol-5-yl)-4-(trifluoromethyl)benzamide, reference compound]				60			60	40		20	Herbicidal action against VIOTR (Viola tricolor; [12]): 70
Cn1nnnc1NC(=O)c1ccc(C(F)(F)F)c(S(C)(=O)=O)c1Br [Example V-10, 2-bromo-3-(methylsulfonyl)-N-(1-methyl-1H-tetrazol-5-yl)-4-(trifluoromethyl)benzamide, reference compound]									60	10	
